In patent publication US11053204B2, “Pyrimidinyloxy benzene derivatives as herbicides” (FMC Corporation, priority 2015, dated 2021):

How the values were obtained:
Type in all cases: in vivo
[1] = tested on: Italian ryegrass (Lolium multiflorum); assay: Test A preemergence, visual injury rating; settings: 0 to 100 scale (0 no effect, 100 complete control)
Method in brief: (§1)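 Compounds in non-phytotoxic solvent with surfactant applied as soil spray preemergence, or postemergence to plants 2-10 cm at one- to two-leaf stage, in loam/sand. After approximately 10 days in greenhouse, injury rated visually versus untreated controls, 0 (no effect) to 100 (complete control).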

[2] = tested on: barnyardgrass (Echinochloa crus-galli); assay: Test A preemergence, visual injury rating; settings: 0 to 100 scale (0 no effect, 100 complete control)
Method in brief: as §1

[3] = tested on: giant foxtail (Setaria faberii); assay: Test A preemergence, visual injury rating; settings: 0 to 100 scale (0 no effect, 100 complete control)
Method in brief: as §1

kochia (Kochia scoparia) [4] = assay: Test A preemergence, visual injury rating; settings: 0 to 100 scale (0 no effect, 100 complete control)
Method in brief: as §1

[5] = tested on: pigweed (Amaranthus retroflexus); assay: Test A preemergence, visual injury rating; settings: 0 to 100 scale (0 no effect, 100 complete control)
Method in brief: as §1

[6] = tested on: ragweed (common ragweed, Ambrosia elatior); assay: Test A preemergence, visual injury rating; settings: 0 to 100 scale (0 no effect, 100 complete control)
Method in brief: as §1

[7] = tested on: Italian ryegrass (Lolium multiflorum); assay: Test A postemergence, visual injury rating; settings: 0 is no effect, 100 is complete control
Text: (§2) Seeds of plant species selected from barnyardgrass (Echinochloa crus-galli), kochia (Kochia scoparia), ragweed (common ragweed, Ambrosia elatior), Italian ryegrass (Lolium multiflorum), large (Lg) crabgrass (Digitaria sanguinalis), giant foxtail (Setaria faberii), morningglory (Ipomoea spp.), pigweed (Amaranthus retroflexus), velvetleaf (Abutilon theophrasti), wheat (Triticum aestivum), and corn (Zea mays) were planted into a blend of loam soil and sand and treated preemergence with a directed soil spray using test chemicals formulated in a non-phytotoxic solvent mixture which included a surfactant.
(§3) At the same time, plants selected from these crop and weed species and also blackgrass (Alopecurus myosuroides), and galium (catchweed bedstraw, Galium aparine) were planted in pots containing the same blend of loam soil and sand and treated with postemergence applications of test chemicals formulated in the same manner. Plants ranged in height from 2 to 10 cm and were in the one- to two-leaf stage for the postemergence treatment. Treated plants and untreated controls were maintained in a greenhouse for approximately 10 days, after which time all treated plants were compared to untreated controls and visually evaluated for injury. Plant response ratings, summarized in Table A, are based on a 0 to 100 scale where 0 is no effect and 100 is complete control. A dash (-) response means no test result.

[8] = tested on: barnyardgrass (Echinochloa crus-galli); assay: Test A postemergence, visual injury rating; settings: 0 is no effect, 100 is complete control
Text: as §2, §3

[9] = tested on: blackgrass (Alopecurus myosuroides); assay: Test A postemergence, visual injury rating; settings: 0 is no effect, 100 is complete control
Text: as §2, §3

corn (Zea mays) = assay: Test A postemergence, visual injury rating; settings: 0 is no effect, 100 is complete control
Text: as §2, §3

[10] = tested on: galium (catchweed bedstraw, Galium aparine); assay: Test A postemergence, visual injury rating; settings: 0 is no effect, 100 is complete control
Text: as §2, §3

[11] = tested on: giant foxtail (Setaria faberii); assay: Test A postemergence, visual injury rating; settings: 0 is no effect, 100 is complete control
Text: as §2, §3

kochia (Kochia scoparia) [12] = assay: Test A postemergence, visual injury rating; settings: 0 is no effect, 100 is complete control
Text: as §2, §3

[13] = tested on: pigweed (Amaranthus retroflexus); assay: Test A postemergence, visual injury rating; settings: 0 is no effect, 100 is complete control
Text: as §2, §3

[14] = tested on: ragweed (common ragweed, Ambrosia elatior); assay: Test A postemergence, visual injury rating; settings: 0 is no effect, 100 is complete control
Text: as §2, §3

[15] = tested on: wheat (Triticum aestivum); assay: Test A postemergence, visual injury rating; settings: 0 is no effect, 100 is complete control
Text: as §2, §3

[16] = tested on: barnyardgrass (Echinochloa crus-galli); assay: Test B flooded paddy test, plant response rating; settings: 250 g ai/ha; Flood; scale of 0 to 100 where 0 is no effect and 100 is complete control; 13 to 15 days
Text: (§4) At time of treatment, test pots were flooded to 3 cm above the soil surface, treated by application of test compounds directly to the paddy water, and then maintained at that water depth for the duration of the test. Treated plants and controls were maintained in a greenhouse for 13 to 15 days, after which time all species were compared to controls and visually evaluated. […] A dash (-) response means no test result.

[17] = tested on: ducksalad (Heteranthera limosa); assay: Test B flooded paddy test, plant response rating; settings: 250 g ai/ha; Flood; scale of 0 to 100 where 0 is no effect and 100 is complete control; 13 to 15 days
Text: as §4

rice (Oryza sativa) = assay: Test B flooded paddy test, plant response rating; settings: 250 g ai/ha; Flood; scale of 0 to 100 where 0 is no effect and 100 is complete control; 13 to 15 days
Text: as §4

[18] = tested on: sedge, umbrella (small-flower umbrella sedge, Cyperus difformis); assay: Test B flooded paddy test, plant response rating; settings: 250 g ai/ha; Flood; scale of 0 to 100 where 0 is no effect and 100 is complete control; 13 to 15 days
Text: as §4

Compound: O=C(OCC1CC1(F)F)c1c(Br)cccc1Oc1ncc(Cl)cn1 (centres unmarked) [Compound 10]
- Ryegrass, Italian plant response rating ([1]; 125 g ai/ha): 10
- Ryegrass, Italian plant response rating ([1]; 500 g ai/ha): 30
- Barnyardgrass plant response rating ([2]; 125 g ai/ha): 40
- Barnyardgrass plant response rating ([2]; 500 g ai/ha): 100
- Foxtail, Giant plant response rating ([3]; 125 g ai/ha): 100
- Foxtail, Giant plant response rating ([3]; 500 g ai/ha): 100
- Kochia plant response rating (kochia (Kochia scoparia) [4]; 125 g ai/ha): 90
- Kochia plant response rating (kochia (Kochia scoparia) [4]; 500 g ai/ha): 100
- Pigweed plant response rating ([5]; 125 g ai/ha): 100
- Pigweed plant response rating ([5]; 500 g ai/ha): 100
- Ragweed plant response rating ([6]; 125 g ai/ha): 0
- Ragweed plant response rating ([6]; 500 g ai/ha): 0
- Ryegrass, Italian plant response rating (0 to 100 scale) ([7]; 125 g ai/ha): 10
- Ryegrass, Italian plant response rating (0 to 100 scale) ([7]; 500 g ai/ha): 60
- Barnyardgrass plant response rating (0 to 100 scale) ([8]; 125 g ai/ha): 20
- Barnyardgrass plant response rating (0 to 100 scale) ([8]; 500 g ai/ha): 100
- Blackgrass plant response rating (0 to 100 scale) ([9]; 125 g ai/ha): 20
- Blackgrass plant response rating (0 to 100 scale) ([9]; 500 g ai/ha): 90
- Corn plant response rating (0 to 100 scale) (corn (Zea mays); 125 g ai/ha): 10
- Corn plant response rating (0 to 100 scale) (corn (Zea mays); 500 g ai/ha): 60
- Galium plant response rating (0 to 100 scale) ([10]; 125 g ai/ha): 100
- Galium plant response rating (0 to 100 scale) ([10]; 500 g ai/ha): 100
- Foxtail, Giant plant response rating (0 to 100 scale) ([11]; 125 g ai/ha): 30
- Foxtail, Giant plant response rating (0 to 100 scale) ([11]; 500 g ai/ha): 100
- Kochia plant response rating (0 to 100 scale) (kochia (Kochia scoparia) [12]; 125 g ai/ha): 90
- Kochia plant response rating (0 to 100 scale) (kochia (Kochia scoparia) [12]; 500 g ai/ha): 100
- Pigweed plant response rating (0 to 100 scale) ([13]; 125 g ai/ha): 90
- Pigweed plant response rating (0 to 100 scale) ([13]; 500 g ai/ha): 100
- Ragweed plant response rating (0 to 100 scale) ([14]; 125 g ai/ha): 10
- Ragweed plant response rating (0 to 100 scale) ([14]; 500 g ai/ha): 50
- Wheat plant response rating (0 to 100 scale) ([15]; 125 g ai/ha): 0
- Wheat plant response rating (0 to 100 scale) ([15]; 500 g ai/ha): 40
- Plant response rating, Barnyardgrass [16]: 0
- Plant response rating, Ducksalad [17]: 80
- Plant response rating, Rice (rice (Oryza sativa)): 0
- Plant response rating, Sedge, Umbrella [18]: 80

Compound: CC(C)=CCOC(=O)c1c(Br)cccc1Oc1ncc(Cl)cn1 [Compound 11]
- Ryegrass, Italian plant response rating ([1]; 125 g ai/ha): 0
- Ryegrass, Italian plant response rating ([1]; 500 g ai/ha): 0
- Barnyardgrass plant response rating ([2]; 125 g ai/ha): 0
- Barnyardgrass plant response rating ([2]; 500 g ai/ha): 30
- Foxtail, Giant plant response rating ([3]; 125 g ai/ha): 40
- Foxtail, Giant plant response rating ([3]; 500 g ai/ha): 100
- Kochia plant response rating (kochia (Kochia scoparia) [4]; 125 g ai/ha): 0
- Kochia plant response rating (kochia (Kochia scoparia) [4]; 500 g ai/ha): 0
- Pigweed plant response rating ([5]; 125 g ai/ha): 0
- Pigweed plant response rating ([5]; 500 g ai/ha): 20
- Ragweed plant response rating ([6]; 125 g ai/ha): 0
- Ragweed plant response rating ([6]; 500 g ai/ha): 0
- Ryegrass, Italian plant response rating (0 to 100 scale) ([7]; 125 g ai/ha): 0
- Ryegrass, Italian plant response rating (0 to 100 scale) ([7]; 500 g ai/ha): 0
- Barnyardgrass plant response rating (0 to 100 scale) ([8]; 125 g ai/ha): 10
- Barnyardgrass plant response rating (0 to 100 scale) ([8]; 500 g ai/ha): 20
- Blackgrass plant response rating (0 to 100 scale) ([9]; 125 g ai/ha): 0
- Blackgrass plant response rating (0 to 100 scale) ([9]; 500 g ai/ha): 20
- Corn plant response rating (0 to 100 scale) (corn (Zea mays); 125 g ai/ha): 0
- Corn plant response rating (0 to 100 scale) (corn (Zea mays); 500 g ai/ha): 10
- Galium plant response rating (0 to 100 scale) ([10]; 125 g ai/ha): 10
- Galium plant response rating (0 to 100 scale) ([10]; 500 g ai/ha): 20
- Foxtail, Giant plant response rating (0 to 100 scale) ([11]; 125 g ai/ha): 20
- Foxtail, Giant plant response rating (0 to 100 scale) ([11]; 500 g ai/ha): 20
- Kochia plant response rating (0 to 100 scale) (kochia (Kochia scoparia) [12]; 125 g ai/ha): 0
- Kochia plant response rating (0 to 100 scale) (kochia (Kochia scoparia) [12]; 500 g ai/ha): 40
- Pigweed plant response rating (0 to 100 scale) ([13]; 125 g ai/ha): 10
- Pigweed plant response rating (0 to 100 scale) ([13]; 500 g ai/ha): 60
- Ragweed plant response rating (0 to 100 scale) ([14]; 125 g ai/ha): 0
- Ragweed plant response rating (0 to 100 scale) ([14]; 500 g ai/ha): 0
- Wheat plant response rating (0 to 100 scale) ([15]; 125 g ai/ha): 0
- Wheat plant response rating (0 to 100 scale) ([15]; 500 g ai/ha): 0
- Plant response rating, Barnyardgrass [16]: 0
- Plant response rating, Ducksalad [17]: 0
- Plant response rating, Rice (rice (Oryza sativa)): 0
- Plant response rating, Sedge, Umbrella [18]: 0

Compound: CC(=O)c1c(Br)cccc1Oc1ncc(Cl)cn1 [Compound 12]
- Ryegrass, Italian plant response rating ([1]; 1000 g ai/ha): 40
- Barnyardgrass plant response rating ([2]; 1000 g ai/ha): 80
- Foxtail, Giant plant response rating ([3]; 1000 g ai/ha): 100
- Kochia plant response rating (kochia (Kochia scoparia) [4]; 1000 g ai/ha): 0
- Pigweed plant response rating ([5]; 1000 g ai/ha): 100
- Ragweed plant response rating ([6]; 1000 g ai/ha): 80
- Ryegrass, Italian plant response rating (0 to 100 scale) ([7]; 1000 g ai/ha): 50
- Barnyardgrass plant response rating (0 to 100 scale) ([8]; 1000 g ai/ha): 80
- Blackgrass plant response rating (0 to 100 scale) ([9]; 1000 g ai/ha): 50
- Corn plant response rating (0 to 100 scale) (corn (Zea mays); 1000 g ai/ha): 20
- Galium plant response rating (0 to 100 scale) ([10]; 1000 g ai/ha): 80
- Foxtail, Giant plant response rating (0 to 100 scale) ([11]; 1000 g ai/ha): 70
- Kochia plant response rating (0 to 100 scale) (kochia (Kochia scoparia) [12]; 1000 g ai/ha): 80
- Pigweed plant response rating (0 to 100 scale) ([13]; 1000 g ai/ha): 100
- Ragweed plant response rating (0 to 100 scale) ([14]; 1000 g ai/ha): 60
- Wheat plant response rating (0 to 100 scale) ([15]; 1000 g ai/ha): 0
- Plant response rating, Barnyardgrass [16]: 0
- Plant response rating, Ducksalad [17]: 0
- Plant response rating, Rice (rice (Oryza sativa)): 0
- Plant response rating, Sedge, Umbrella [18]: 0
